According to patent US9987209B2, “Multi-functional composition for cosmetic formulations” (Arch Chemicals, Inc., priority 2013, dated 2018):
≈ marks a conversion by molar mass, not a printed value.

Tests used:
Experiment in all cases: minimum inhibitory concentration (MIC), microtiter broth dilution
Type in all cases: cell-based
[1] = test system: Candida albicans ATCC 10231; conditions: Table 2, ppm per product, stock solutions in alcohol, 28° C. for 5 days; for MIC: Candida albicans, ATCC10231, 120 h
Protocol: (§1) The following compositions were formulated and tested for antimicrobial efficacy. In particular, the compositions were tested for minimum inhibitory concentration (MIC).
(§2) Staphylococcus aureus ATCC 6538, Pseudomonas aeruginosa ATCC 9027, Klebsiella pneumonia ATCC 4352, Burkholderia cepacia ATCC 25416, Enterobacter gergoviae ATCC 33028, Candida albicans ATCC 10231, Aspergillus brasiliensis ATCC 16404, and 2 Penicillium sp. were revived from refrigerated slants and plated on TSA plates for bacteria, SDA plates for yeast, and PDA plates for mold. The broth media used for MIC determination on microtiter plates were TSB for bacteria and SDB for fungi.
(§3) All prepared solutions were considered as products and were tested at the concentration starting at 10,000 ppm per product. Samples were diluted with 2-fold serial dilution into the appropriate broth media on microtiter plates. The bacterial inoculum at concentration of 1×10^6 CFUs/mL and fungal inoculum at concentration of 1×10^5 cells or spores/mL were suspended in regular strength broth and added to the wells in 1:1 ratio to the sample/medium mixtures on microtiter plates. The final concentration of bacteria was 5×10^5 CFUs/mL; the final concentration of fungi was 5×10^4 cells or spores/mL. Bacterial plates were incubated at 35° C. for 2 days and fungal plates were incubated at 28° C. for 5 days before reading results.
(§4) In this example, two compositions made according to the present disclosure were tested for minimum inhibitory concentration (MIC) as described in Example No. 1. In this example, the first sample tested was the same as Sample No. 4 described above in Example No. 1. The second sample (Sample No. 8) was identical to Sample No. 4 except 1,3 propanediol was replaced with 1,5 pentanediol. […]

[2] = test system: Staphylococcus aureus ATCC 6538; conditions: Table 2, ppm per product, stock solutions in alcohol, 35° C. for 2 days; for MIC: Staphylococcus aureus, ATCC6538, 48 h, read-out: minimum inhibitory concentration (MIC), S. aureus
Protocol: as §1, §2, §3, §4

[3] = test system: Pseudomonas aeruginosa ATCC 9027; conditions: Table 2, ppm per product, stock solutions in alcohol, 35° C. for 2 days; for MIC: Pseudomonas aeruginosa, ATCC9027, 48 h, read-out: minimum inhibitory concentration (MIC), Ps. aeruginosa
Protocol: as §1, §2, §3, §4

[4] = test system: Aspergillus brasiliensis ATCC 16404; conditions: Table 2, ppm per product, stock solutions in alcohol, 28° C. for 5 days; for MIC: Aspergillus brasiliensis, ATCC16404, 120 h
Protocol: as §1, §2, §3, §4

[5] = test system: Penicillium sp.; conditions: Table 2, ppm per product, stock solutions in alcohol, 28° C. for 5 days; for MIC: Penicillium, 120 h
Protocol: as §1, §2, §3

[6] = test system: Enterobacter gergoviae ATCC 33028; conditions: Table 2, ppm per product, stock solutions in alcohol, 35° C. for 2 days; for MIC: Pluralibacter gergoviae, ATCC33028, 48 h, read-out: minimum inhibitory concentration (MIC), E. gergoviae
Protocol: as §1, §2, §3

[7] = test system: Burkholderia cepacia ATCC 25416; conditions: Table 2, ppm per product, stock solutions in alcohol, 35° C. for 2 days; for MIC: Burkholderia cepacia, ATCC25416, 48 h, read-out: minimum inhibitory concentration (MIC), B. cepacia
Protocol: as §1, §2, §3

[8] = test system: Klebsiella pneumonia ATCC 4352; conditions: Table 2, ppm per product, stock solutions in alcohol, 35° C. for 2 days; for MIC: Klebsiella pneumoniae, ATCC4352, 48 h, read-out: minimum inhibitory concentration (MIC), K. pneumonia
Protocol: as §1, §2, §3

With `CCCCCCCC(=O)O` [2.5% Octanoic Acid, Octanoic Acid] the MIC [1] was 2500 µg/mL (≈ 17.3 mM), the MIC [2] was > 10000 µg/mL and the MIC [3] was 10000 µg/mL (≈ 69.3 mM). The MIC [4] was > 10000 µg/mL, the MIC [5] was 7500 µg/mL (≈ 52 mM) and the MIC [6] was > 10000 µg/mL. For the same molecule, the MIC [7] was 10000 µg/mL (≈ 69.3 mM) and the MIC [8] was > 10000 µg/mL.
`COc1cc(C=O)ccc1O` [20% Vanillin, Vanillin] showed an MIC [1] of 2500 µg/mL (≈ 16.4 mM), an MIC [2] of 10000 µg/mL (≈ 65.7 mM) and an MIC [3] of 5000 µg/mL (≈ 32.9 mM). It also gave an MIC [4] of 5000 µg/mL (≈ 32.9 mM), an MIC [5] of 2500 µg/mL (≈ 16.4 mM) and an MIC [6] of 10000 µg/mL (≈ 65.7 mM). For the same molecule, the MIC [7] was 5000 µg/mL (≈ 32.9 mM) and the MIC [8] was 10000 µg/mL (≈ 65.7 mM).
For `OCCCO` [50% 1,3-Propanediol, 1,3-Propanediol], the “minimum inhibitory concentration (MIC), C. albicans” value [1] was 10,000 ppm, the “minimum inhibitory concentration (MIC), S. aureus” value [2] was >10,000 ppm and the “minimum inhibitory concentration (MIC), Ps. aeruginosa” value [3] was 10,000 ppm. The “minimum inhibitory concentration (MIC), A. brasiliensis” value [4] was >10,000 ppm, the “minimum inhibitory concentration (MIC), Penicillium sp.” value [5] was >10,000 ppm and the “minimum inhibitory concentration (MIC), E. gergoviae” value [6] was >10,000 ppm. The “minimum inhibitory concentration (MIC), B. cepacia” value [7] was 10,000 ppm and the “minimum inhibitory concentration (MIC), K. pneumonia” value [8] was >10,000 ppm.
